Values quoted from earlier work as cited in article PMC10322880 (Communications Biology, 2023).

Test system: SARS-CoV-2
Conditions: phase 2/3 clinical trial

SMILES: Cn1cnc(Cn2c(=O)[nH]/c(=N\c3cc4cn(C)nc4cc3Cl)n(Cc3cc(F)c(F)cc3F)c2=O)n1 [ensitrelvir]
- SARS-CoV-2 clearance: rapid SARS-CoV-2 clearance
- tolerability: well tolerated
